In US5155106A, “Cysteamine derivatives and antirheumatic agents containing cysteamine derivatives” (Terumo Kabushiki Kaisha, priority 1988, dated 1992) one finds inhibition in vivo and change in vivo data, which are given here for eight compounds.

The subject of the assay is adjuvant arthritis of Lewis rats. Nature of the assay: Suppression of adjuvant arthritis in Lewis rats (hind leg sole edema, Mycobacterium butyricum). The class given is in vivo. Conditions: Rattus norvegicus, 432 h, 100 mg/kg oral once a day, 18 days after sensitization; for inhibition in vivo at 100 mg/kg: edema increase vs control group, t-test *P<0.05, **P<0.02, ***P<0.01; for change in vivo at 100 mg/kg: percent increase vs volume before sensitization, control 130.9 ± 5.1 (Table 1), 137.6 ± 15.7 (Table 2), 131.0 ± 10.0 (Table 3), read-out: Increase in volume due to edema. The method, then: The compounds according to the present invention obtained in the Examples were evaluated for their effects against adjuvant arthritis (diseased animal model for chronic articular rheumatism) of Lewis rats.
In the Experiment, five six week old male Lewis rats (body weight, 130 to 160 g) were treated as one group.
To right hind leg sole of rats from each group was subcutaneously injected with 0.2 mg of dry culture of Mycobacterium butyricum suspended in liquid paraffin. The compounds were suspended in 5% Tween 80, and the suspensions were orally administered to the rats once a day from the day next to the day of sensitization. The rats of both the medicated groups and the control group (non-medicated group) were intermittently measured for their volume of edema in their hind leg sole to examine the effects of the compounds for suppressing the adjuvant arthritis.
Percent increase in the volume of the hind leg sole due to the edema was calculated on the basis of the volume before sensitization, and suppression was determined by comparing the percent increase of the medicated group with that of the control group.

A word on the inhibition in vivo: it is the change of the read-out against control, counted positive when it falls.

Turning to `CCCc1c(OC)ccc(C(=O)N2CCSCC2)c1O` [XIV, N-(2-hydroxy-3-n-propyl-4-methoxybenzoyl)thiomorpholine], the inhibition in vivo at 100 mg/kg is 21.5% and the change in vivo at 100 mg/kg was 103 ± 10%.

For the compound `COc1ccc(C(=O)NCCS)c(O)c1` [XVII, N-(2-hydroxy-4-methoxybenzoyl)cysteamine], the inhibition in vivo at 100 mg/kg came out at 38.4% and the change in vivo at 100 mg/kg stood at 84.8 ± 10.4%.

As to `CCCCCCCCSCCNC(=O)c1ccc(OC)c(CCC)c1O` [XX, 2-(2'-hydroxy-3'-n-propyl-4'-methoxybenzoylamino)ethyl-n-octylsulfide], the inhibition in vivo at 100 mg/kg is 21.1% and the change in vivo at 100 mg/kg was found to be 103 ± 8.8%.

As for `CCCc1c(OC)ccc(C(=O)NCCS)c1O` [XVIII], the inhibition in vivo at 100 mg/kg amounted to 30.1% and the change in vivo at 100 mg/kg is 91.6 ± 10.9%.

For the compound `CCCc1c(OC)ccc(C(=O)NCc2cccs2)c1O` [XVI, N-(2-hydroxy-3-n-propyl-4-methoxybenzoyl)-2-thiophenemethylamine], the inhibition in vivo at 100 mg/kg was 34.4% and the change in vivo at 100 mg/kg came out at 85.9 ± 11.1%.

Take `COc1ccc(C(=O)NC2=NCCS2)c(O)c1` [XIII, 2-(2-hydroxy-4-methoxybenzoylamino)thiazoline]: the inhibition in vivo at 100 mg/kg is 23.5% and the change in vivo at 100 mg/kg amounted to 100 ± 3.1%.

Turning to `CCCc1c(OC)ccc(C(=O)N2CCSC2)c1O` [XV, N-(2-hydroxy-3-n-propyl-4-methoxybenzoyl)thiazolidine], the inhibition in vivo at 100 mg/kg was found to be 27% and the change in vivo at 100 mg/kg amounted to 95.6 ± 9.6%.

In the case of `CCCCCCCCSCCNC(=O)c1ccc(OC)cc1O` [XIX, 2-(2'-hydroxy-4'-methoxybenzoylamino)ethyl-n-octylsulfide], the inhibition in vivo at 100 mg/kg was 41.4% and the change in vivo at 100 mg/kg was determined as 76.8 ± 17.8%.
